Tests used:
[1] = molecular target: tubulin colchicine site (Bos taurus, UniProt P81947+Q6B856); experiment: Inhibition of [3H]colchicine binding to tubulin; details: read-out: inhibition of colchicine binding % inhibition ± SD
Description: Reaction mixtures in the assembly assay contained 9 μM (0.9 mg/mL) tubulin in the assembly assay, and in the colchicine assay they contained 0.5 μM tubulin, 5.0 μM [^3H]colchicine, and 5.0 μM inhibitor.
Analysis of effects on tubulin polymerization was performed by turbidimetry at 350 nm in recording spectrophotometers equipped with electronic temperature controllers as described in detail elsewhere.[71] […] The binding of [^3H]colchicine to tubulin was perfomed as described in detail previously[72] except that the tubulin concentration was reduced from 0.1 mg/mL to 0.05 mg/mL and only one, instead of two, DEAE-cellulose filter was used for each reaction mixture.

[2] = test system: HBL1 (ABC DLBCL); experiment: MTT cell proliferation, lymphoma; assay type: cell-based; details: Homo sapiens, 72 h; for activity at 1 µM: of untreated cells, read-out: Proliferating cells (%)
Description: (§1) All compounds were further tested at the concentration of 1 μM on four cell lines derived from distinct lymphoma histotypes, plus two with secondary resistance to the PI3Kδ inhibitor idelalisib[51] or to the BTK inhibitor ibrutinib.[52] […] For comparison, the same experiments were conducted using compound 3, but the response to it was minimal, and thus it was not considered further.
(§2) Established human cell lines derived from germinal center B-cell (GCB) (SU-DHL-10), activated B-cell (ABC) (HBL1) diffuse large B-cell lymphoma (DLBCL), mantle cell lymphoma (MCL) (MINO), splenic marginal zone lymphoma (SMZL) (parental VL51, VL51 idelalisib resistant clone, VL51 ibrutinib resistant clone) were cultured in culture RPMI-1640 media supplemented with fetal bovine serum (10%), penicillin–streptomycin–neomycin (∼5,000 units of penicillin, 5 mg of streptomycinm and 10 mg of neomycin/mL, Sigma), and L-glutamine (1%). Vincristine sulfate was purchased from Sigma-Aldrich. Cell line identities were confirmed by CellCheck test (IDEXX, BioResearch, Ludwigsburg, Germany). All compounds were dissolved in dimethyl sulfoxide to obtain a stock concentration of 10 mM.
(§3) The antiproliferative activity of all compounds was assessed by using the 3-(4.5-dimethylthiazolyl-2)-2,5-diphenyltetrazolium bromide (MTT) test. Cells were seeded in 96-well plates (nontissue culture treated) at a density of 1 × 10^5 cells/mL and treated with a single concentration of 1 μM for 72 h. […] In this case, cells were treated in triplicate with serially diluted compounds in the appropriate tissue culture medium at a range of 40–10 000 nM. Cells were incubated for 72 h at 37 °C, 5% CO2. Wells containing medium only were included on each plate and served as blanks for absorbance readings. MTT (Sigma, Buchs, Switzerland) was prepared as a 5 mg/mL stock solution in phosphate buffered saline (PBS) and filter-sterilized. MTT solution (22 μL) was added to each well, and tissue culture plates were incubated at 37 °C for 4 h. Cells were then lysed with 25% sodium dodecyl sulfate lysis buffer, and absorbance was read at 570 nm using a Beckman Coulter-AD340 plate reader.

[3] = test system: MINO (MCL); experiment: MTT cell proliferation, lymphoma; assay type: cell-based; details: Homo sapiens, 72 h; for activity at 1 µM: of untreated cells, read-out: Proliferating cells (%)
Description: as §1, §2, §3

[4] = test system: SU-DHL-10 (GCB DLBCL); experiment: MTT cell proliferation, lymphoma; assay type: cell-based; details: Homo sapiens, SU-DHL10, 72 h; for activity at 1 µM: of untreated cells, read-out: Proliferating cells (%)
Description: as §1, §2, §3

[5] = test system: VL51 (MZL); experiment: MTT cell proliferation, lymphoma; assay type: cell-based; details: Homo sapiens, 72 h; for activity at 1 µM: of untreated cells, read-out: Proliferating cells (%)
Description: as §1, §2, §3

[6] = test system: VL51 ibrutinib-resistant; experiment: MTT cell proliferation, lymphoma; assay type: cell-based; details: Homo sapiens, 72 h, of untreated cells, read-out: Proliferating cells (%)
Description: as §1, §2, §3

[7] = test system: VL51 idelalisib-resistant; experiment: MTT cell proliferation, lymphoma; assay type: cell-based; details: Homo sapiens, 72 h, of untreated cells, read-out: Proliferating cells (%)
Description: as §1, §2, §3

[8] = molecular target: bovine brain tubulin (Bos taurus, UniProt P81947+Q6B856); experiment: Inhibition of tubulin assembly (turbidimetry); assay type: biochemical; details: 9 μM (0.9 mg/mL) tubulin, 20 min at 30 °C; read-out: inhibition of tubulin assembly IC50 ± SD
Sequence of bovine brain tubulin (Q6B856 whole entry): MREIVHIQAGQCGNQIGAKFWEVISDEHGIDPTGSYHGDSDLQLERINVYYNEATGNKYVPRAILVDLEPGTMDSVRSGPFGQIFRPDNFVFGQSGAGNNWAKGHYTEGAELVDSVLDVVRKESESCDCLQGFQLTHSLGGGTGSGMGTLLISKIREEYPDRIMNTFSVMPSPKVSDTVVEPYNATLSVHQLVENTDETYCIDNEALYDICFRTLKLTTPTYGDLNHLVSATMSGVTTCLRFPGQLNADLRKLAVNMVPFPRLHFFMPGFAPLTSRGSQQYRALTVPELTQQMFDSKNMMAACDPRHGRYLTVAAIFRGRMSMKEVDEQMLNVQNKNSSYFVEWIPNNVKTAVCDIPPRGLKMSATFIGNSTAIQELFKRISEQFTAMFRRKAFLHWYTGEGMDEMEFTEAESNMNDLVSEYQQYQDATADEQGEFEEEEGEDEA
Sequence of bovine brain tubulin (P81947 whole entry): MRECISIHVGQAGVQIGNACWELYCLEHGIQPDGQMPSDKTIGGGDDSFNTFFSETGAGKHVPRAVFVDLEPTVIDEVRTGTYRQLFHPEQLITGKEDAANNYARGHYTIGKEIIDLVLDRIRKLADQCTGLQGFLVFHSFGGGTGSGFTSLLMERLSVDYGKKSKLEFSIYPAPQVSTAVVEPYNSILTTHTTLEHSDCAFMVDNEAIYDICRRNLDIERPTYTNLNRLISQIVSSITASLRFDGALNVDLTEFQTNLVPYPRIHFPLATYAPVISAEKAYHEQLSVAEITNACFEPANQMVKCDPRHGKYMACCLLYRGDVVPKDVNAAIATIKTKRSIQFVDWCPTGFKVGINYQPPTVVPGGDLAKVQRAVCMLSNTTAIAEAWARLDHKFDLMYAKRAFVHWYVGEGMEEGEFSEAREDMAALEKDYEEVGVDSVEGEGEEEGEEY

Sequence of tubulin colchicine site (Q6B856 whole entry): as the sequence (Q6B856 whole entry) above
Sequence of tubulin colchicine site (P81947 whole entry): as the sequence (P81947 whole entry) above

| Compound | inhibition at 5 µM [1] [%] | activity at 1 µM [2] [%] | activity at 1 µM [3] [%] | activity at 1 µM [4] [%] | activity at 1 µM [5] [%] | activity at 1 µM [6] [%] | activity at 1 µM [7] [%] | IC50 [8] [nM] | IC50 ([2]; MTT) [nM] | IC50 ([3]; MTT) [nM] | IC50 ([4]; MTT) [nM] | IC50 ([5]; MTT) [nM] |
| --- | --- | --- | --- | --- | --- | --- | --- | --- | --- | --- | --- | --- |
| COc1ccc(/C=C\c2cc(OC)c(OC)c(OC)c2)cc1O [CA-4, combretastatin A-4, reference compound] | 97 ± 0.9 | – | – | – | – | – | – | – | – | – | – | – |
| O=S(=O)(c1ccccc1)n1ccc2c1-c1oncc1CCC2 [Compound 51, 9-(Phenylsulfonyl)-4,5,6,9-tetrahydropyrrolo[2′,3′:3,4]cyclohepta[1,2-d][1,2]oxazole] | – | 118 | 104 | 110 | 88.1 | 121 | 118 | – | – | – | – | – |
| Cn1ccc2c1-c1oncc1CCC2 [Compound 52, 9-Methyl-4,5,6,9-tetrahydropyrrolo[2′,3′:3,4]cyclohepta[1,2-d][1,2]oxazole] | – | 101 | 104 | 70.2 | 87.4 | 100 | 107 | – | – | – | – | – |
| c1ccc(Cn2ccc3c2-c2oncc2CCC3)cc1 [Compound 53, 9-Benzyl-4,5,6,9-tetrahydropyrrolo[2′,3′:3,4]cyclohepta[1,2-d][1,2]oxazole] | – | 109 | 109 | 70.2 | 103 | 125 | 128 | – | – | – | – | – |
| COc1ccccc1Cn1ccc2c1-c1oncc1CCC2 [Compound 54, 9-(2-Methoxybenzyl)-4,5,6,9-tetrahydropyrrolo[2′,3′:3,4]cyclohepta[1,2-d][1,2]oxazole] | – | 122 | 112 | 141 | 120 | 112 | 136 | – | – | – | – | – |
| COc1cccc(Cn2ccc3c2-c2oncc2CCC3)c1 [Compound 55, 9-(3-Methoxybenzyl)-4,5,6,9-tetrahydropyrrolo[2′,3′:3,4]cyclohepta[1,2-d][1,2]oxazole] | – | 127 | 115 | 80.3 | 112 | 125 | 133 | – | – | – | – | – |
| COc1ccc(Cn2ccc3c2-c2oncc2CCC3)cc1 [Compound 56, 9-(4-Methoxybenzyl)-4,5,6,9-tetrahydropyrrolo[2′,3′:3,4]cyclohepta[1,2-d][1,2]oxazole] | – | 123 | 109 | 74.6 | 110 | 110 | 127 | 8200 ± 500 | – | – | – | – |
| COc1ccc(OC)c(Cn2ccc3c2-c2oncc2CCC3)c1 [Compound 57, 9-(2,5-Dimethoxybenzyl)-4,5,6,9-tetrahydropyrrolo[2′,3′:3,4]cyclohepta[1,2-d][1,2]oxazole] | 38 ± 0.7 | 29.6 | 8.5 | 11 | 36.5 | 37 | 34.3 | 3200 ± 60 | 600 | 400 | 300 | 200 |
| COc1cc(Cn2ccc3c2-c2oncc2CCC3)cc(OC)c1OC [Compound 59, 9-(3,4,5-Trimethoxybenzyl)-4,5,6,9-tetrahydropyrrolo[2′,3′:3,4]cyclohepta[1,2-d][1,2]oxazole] | – | 114 | 99 | 94.6 | 97.6 | 92.1 | 112 | – | – | – | – | – |

Source: publication PMC7901646, “Pyrrolo[2′,3′:3,4]cyclohepta[1,2-d][1,2]oxazoles, a New Class of Antimitotic Agents Active against Multiple Malignant Cell Types” (Journal of Medicinal Chemistry, 2020)
